These are literature values, as cited in patent US8969340B2, “Methods for treating chronic pelvic pain syndrome” (Northwestern University, priority 2004, dated 2015).

SMILES strings stand for the structures. Where two headings read alike, the source gives them in different places.

The data set concerns the target T1, CCR-2 receptor (Homo sapiens, UniProt P41597).
T1 sequence (P41597 1-360 isoform P41597-2): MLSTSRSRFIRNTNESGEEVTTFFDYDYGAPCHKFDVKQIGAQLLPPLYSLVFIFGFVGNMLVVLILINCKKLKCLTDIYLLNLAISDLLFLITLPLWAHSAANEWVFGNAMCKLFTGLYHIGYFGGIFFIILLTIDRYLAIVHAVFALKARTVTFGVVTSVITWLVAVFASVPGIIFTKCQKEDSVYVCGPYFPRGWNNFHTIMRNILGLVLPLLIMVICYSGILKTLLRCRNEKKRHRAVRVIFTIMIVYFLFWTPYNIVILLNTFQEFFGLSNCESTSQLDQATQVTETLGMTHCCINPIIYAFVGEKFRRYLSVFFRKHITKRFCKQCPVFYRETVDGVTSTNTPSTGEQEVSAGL
The note with it: indolopiperidines.

For orientation: Ki means the dissociation constant of the complex between target and ligand, obtained from inhibition or displacement. Regarding `O=S(=O)(NCCCCCN1CCC(c2c[nH]c3ccccc23)CC1)c1ccc(Cl)c(Cl)c1` [compound 10], for the setting “variation of X and R”, the Ki was greater than 10 µM.
On to `O=C(/C=C/c1ccc(Cl)c(Cl)c1)NCCN1CCC(c2c[nH]c3ccccc23)CC1` [compound 30], for which the Ki (variation of chain length n) is greater than 10 µM.
